One experiment has as its target Erk1 (Homo sapiens (Human), UniProt P27361). The experiment can be described thus: Protein Mass Modification Assay (intact protein MALDI). In kind it is binding. A digest of the protocol: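 Percent covalent modification comes from the intact-protein MALDI centroid mass shift, treated versus control, divided by compound MW. Before analysis, human Erk1 was exposed to compound at 10-fold excess over protein for 60 min at room temperature.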

For a further experiment, the target named is MEK1 activated ERK1 (Homo sapiens (Human), UniProt P27361). In words: Omnia continuous-read kinase assay for potency against MEK1 activated ERK1. In kind it is biochemical. To be noted: MEK1 activated ERK1, WT, ATP at KM. An excerpt: Omnia Assay Protocol for Potency Assessment Against MEK1 Activated ERK1:
The protocol below describes continuous-read kinase assays to measure potency of compounds against activated ERK1 enzyme. The mechanics of the assay platform are best described by the vendor (Invitrogen, Carlsbad, Calif.) on their website at the following URL: invitrogen.com/site/us/en/home.html.
Briefly, a 1.25× stock of ERK1 enzyme (14-439-K) from Millipore (Billerica, Mass.), 5×ATP (AS001A) and ST17-Sox conjugated peptide substrate (KNZ1171C) were prepared in 1× kinase reaction buffer consisting of 20 mM Tris, pH 7.5, 5 mM MgCl2, 1 mM EGTA, 5 mM β-glycerophosphate, 5% glycerol (10× stock, KB002A) and 0.2 mM DTT. 10 μL of ATP/ST17-sox peptide substrate mix was combined with 0.5 μL volume of 100% DMSO and serially diluted compounds were prepared in 100% DMSO in a Corning (#3574) 384-well, white, non-binding surface microtiter plate (Corning, N.Y.). Kinase reactions were started with the addition of 40 μL of ERK1 solution and monitored every 71 seconds for 30-240 minutes at λex360/λem485 in a Synergy plate reader from BioTek (Winooski, Vt.). At the conclusion of each assay, progress curves from each well were examined for linear reaction kinetics and fit statistics (R^2, 95% confidence interval, absolute sum of squares). Initial velocity (0 minutes to ˜30+ minutes) from each reaction was determined from the slope of a plot of relative fluorescence units vs time (minutes or seconds) and then plotted against inhibitor concentration to estimate ^AppIC50 from log [Inhibitor] vs Response, Variable Slope model in GraphPad Prism from GraphPad Software (San Diego, Calif.).
[Reagent] used in optimized protocol:
[ERK1]=4 nM, [ATP]=50 μM, [ST17-Sox]=10 μM (ATP ^appKM 48 μM)
The results of this assay show the degree of inhibition of ERK activity, which is a direct measurement of inhibition of ERK activity. Results from this assay are reported in Table A under the column “ERK1 Omnia WT ATP KM IC50 (nM).”

Sequence of Erk1 (P27361 whole entry, looked up): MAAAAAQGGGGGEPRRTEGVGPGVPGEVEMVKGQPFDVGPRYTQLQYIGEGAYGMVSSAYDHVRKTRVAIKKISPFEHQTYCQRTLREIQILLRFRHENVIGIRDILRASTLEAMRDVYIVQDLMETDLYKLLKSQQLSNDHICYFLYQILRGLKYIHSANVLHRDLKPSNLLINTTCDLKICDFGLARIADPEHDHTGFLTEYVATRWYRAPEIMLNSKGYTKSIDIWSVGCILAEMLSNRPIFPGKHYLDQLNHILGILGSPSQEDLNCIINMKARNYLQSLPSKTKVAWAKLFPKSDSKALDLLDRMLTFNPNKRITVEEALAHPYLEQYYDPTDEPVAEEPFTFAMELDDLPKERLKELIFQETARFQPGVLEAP
Sequence of MEK1 activated ERK1 (P27361 whole entry): as the sequence (P27361 whole entry, looked up) above

The term IC50 denotes the concentration that inhibits the measured activity by half. Turning to `C=CC(=O)Nc1ccccc1Nc1nc(Nc2ccc(OCCOC)cc2OC)ncc1Cl` [Compound I-182, N-(2-((5-chloro-2-((2-methoxy-4-(2-methoxyethoxy)phenyl)amino)pyrimidin-4-yl)amino)phenyl)acrylamide], the “ERK1 Mass Mod (%)” value at Erk1 is given as “E (provided a mass modification of ≧70%)”. Besides, on MEK1 activated ERK1, the IC50 was over 1000 nM.

For the compound `C=CC(=O)Nc1cc(OC)ccc1Oc1nc(Nc2ccc(N3CCC[C@@H]3C(N)=O)cc2OC)ncc1C(N)=O` [Compound I-262, (R)-4-(2-acrylamido-4-methoxyphenoxy)-2-((4-(2-carbamoylpyrrolidin-1-yl)-2-methoxyphenyl)amino)pyrimidine-5-carboxamide], the “ERK1 Mass Mod (%)” value at Erk1 is recorded as “F (provided a mass modification of 31-69%)”. In addition, the IC50 on MEK1 activated ERK1 is over 1000 nM.

On to `CCOCCC(=O)Nc1ccccc1Nc1nc(Nc2cc(C(N)=O)ccc2C)ncc1Cl` [Compound I-130], for which the “ERK1 Mass Mod (%)” value at Erk1 is recorded as “G (proived a mass modification ≦30%)”. Moreover, the IC50 at MEK1 activated ERK1 is over 1000 nM.

In the case of `C=CC(=O)Nc1ccccc1Nc1nc(Nc2ccc(NC(=O)OC)cc2OC)ncc1Cl` [Compound I-184, methyl (4-((4-((2-acrylamidophenyl)amino)-5-chloropyrimidin-2-yl)amino)-3-methoxyphenyl)carbamate], the “ERK1 Mass Mod (%)” value at Erk1 is “E (provided a mass modification of ≧70%)”. In addition, the IC50 on MEK1 activated ERK1 is over 1000 nM.

Turning to `NC(=O)c1ccccc1Nc1nc(N[C@H]2CCCN(C(=O)CO)C2)ncc1C(F)(F)F` [Compound I-307, (S)-2-((2-((1-(2-hydroxyacetyl)piperidin-3-yl)amino)-5-(trifluoromethyl)pyrimidin-4-yl)amino)benzamide], the “ERK1 Mass Mod (%)” value at Erk1 is on record as “G (proived a mass modification ≦30%)”. Besides, on MEK1 activated ERK1, the IC50 was under 100 nM.

On to `CCC(=O)Nc1ccccc1Nc1nc(N[C@H]2CCCN(C(C)=O)C2)ncc1C(F)(F)F` [Compound I-317, (S)—N-(2-((2-((1-acetylpiperidin-3-yl)amino)-5-(trifluoromethyl)pyrimidin-4-yl)amino)phenyl)propionamide], for which the “ERK1 Mass Mod (%)” value on Erk1 is listed as “G (proived a mass modification ≦30%)”. Moreover, the IC50 on MEK1 activated ERK1 was under 100 nM.

As for `C=CC(=O)Nc1ccccc1Oc1nc(Nc2ccc(N3CCN(C(C)=O)CC3)cc2OC)ncc1Cl` [Compound I-259, N-(2-((2-((4-(4-acetylpiperazin-1-yl)-2-methoxyphenyl)amino)-5-chloropyrimidin-4-yl)oxy)phenyl)acrylamide], the “ERK1 Mass Mod (%)” value on Erk1 is recorded as “F (provided a mass modification of 31-69%)”. Moreover, on MEK1 activated ERK1, the IC50 was over 1000 nM.

On to `C=CC(=O)Nc1cc(C)ccc1Nc1nc(N[C@H]2CCCN(C(=O)c3ccccc3)C2)ncc1C(F)(F)F` [Compound I-44, (S)—N-(2-((2-((1-Benzoylpiperidin-3-yl)amino)-5-(trifluoromethyl)pyrimidin-4-yl)amino)-5-methylphenyl)acrylamide], for which the “ERK1 Mass Mod (%)” value on Erk1 is listed as “E (provided a mass modification of ≧70%)”. Moreover, the half-inhibitory concentration (IC50) on MEK1 activated ERK1 was over 1000 nM.

In the case of `C=CC(=O)Nc1cc(OC)ccc1Nc1nc(N[C@H]2CCCN(C(=O)CO)C2)ncc1C(F)(F)F` [Compound I-64, (S)—N-(2-((2-((1-(2-Hydroxyacetyl)piperidin-3-yl)amino)-5-(trifluoromethyl)pyrimidin-4-yl)amino)-5-methoxyphenyl)acrylamide], on Erk1, the “ERK1 Mass Mod (%)” value is “E (provided a mass modification of ≧70%)”. The 50% inhibitory concentration (IC50) at MEK1 activated ERK1 was under 100 nM.

On to `CCC(=O)Nc1ccccc1Nc1nc(N[C@H]2CCCN(C(=O)CO)C2)ncc1Cl` [Compound I-311, (S)—N-(2-((5-chloro-2-((1-(2-hydroxyacetyl)piperidin-3-yl)amino)pyrimidin-4-yl)amino)phenyl)propionamide], for which, on MEK1 activated ERK1, the IC50 is under 100 nM.

`C#CC(=O)NCCCOc1cc(C)c(Nc2ncc(Cl)c(Nc3ccccc3NC(=O)C=C)n2)cc1C(N)=O` [Compound I-227, 5-((4-((2-acrylamidophenyl)amino)-5-chloropyrimidin-2-yl)amino)-4-methyl-2-(3-propiolamidopropoxy)benzamide]: on Erk1, the “ERK1 Mass Mod (%)” value is “E (provided a mass modification of ≧70%)”.

Take `C=CC(=O)Nc1ccccc1Nc1nc(Nc2cc(C(=O)NOCCO)ccc2OC)ncc1C(F)(F)F` [Compound I-74, 3-((4-((2-Acrylamidophenyl)amino)-5-(trifluoromethyl)pyrimidin-2-yl)amino)-N-(2-hydroxyethoxy)-4-methoxybenzamide]: the “ERK1 Mass Mod (%)” value at Erk1 is listed as “E (provided a mass modification of ≧70%)”.

For `C=CC(=O)Nc1ccccc1Nc1nc(Nc2cc(C(=O)NOCCO)ccc2C#N)ncc1Cl` [Compound I-202, 3-((4-((2-acrylamidophenyl)amino)-5-chloropyrimidin-2-yl)amino)-4-cyano-N-(2-hydroxyethoxy)benzamide], on Erk1, the “ERK1 Mass Mod (%)” value is on record as “F (key: E: provided a mass modification of ≧70%; F: provided a mass modification of 31-69%; G: proived a mass modification ≦30%)”.

Consider `C=CC(=O)Nc1cc(OC)ccc1Nc1nc(Nc2ccc(N(CC)C(C)=O)cc2OC)ncc1Cl` [Compound I-175, N-(2-((5-chloro-2-((4-(N-ethylacetamido)-2-methoxyphenyl)amino)pyrimidin-4-yl)amino)-5-methoxyphenyl)acrylamide], for which, at Erk1, the “ERK1 Mass Mod (%)” value is given as “E (provided a mass modification of ≧70%)”.

Take `C=CC(=O)Nc1cc(C)ccc1Nc1nc(Nc2cc(C(N)=O)ccn2)ncc1Cl` [Compound I-238, 2-((4-((2-acrylamido-4-methylphenyl)amino)-5-chloropyrimidin-2-yl)amino)isonicotinamide]: at Erk1, the “ERK1 Mass Mod (%)” value is listed as “E (provided a mass modification of ≧70%)”.

Regarding `C=CC(=O)Nc1ccccc1Nc1nc(Nc2cc(C(N)=O)ccc2C)ncc1C` [Compound I-224, 3-(4-(2-acrylamidophenylamino)-5-methylpyrimidin-2-ylamino)-4-methyl benzamide], the “ERK1 Mass Mod (%)” value on Erk1 was “E (provided a mass modification of ≧70%)”.

For the compound `C=CC(=O)Nc1ccccc1Nc1nc(Nc2ccc3c(c2OC)CCCC(=O)N3CCCN2CCOCC2)ncc1C(N)=O` [Compound I-253, 4-((2-acrylamidophenyl)amino)-2-((6-methoxy-1-(3-morpholinopropyl)-2-oxo-2,3,4,5-tetrahydro-1H-benzo[b]azepin-7-yl)amino)pyrimidine-5-carboxamide], the “ERK1 Mass Mod (%)” value at Erk1 is “F (provided a mass modification of 31-69%)”.

In the case of `C=CC(=O)Nc1cc(OC)ccc1Nc1nc(Nc2ccc3c(c2)CC(=O)N3CC)ncc1Cl` [Compound I-166, N-(2-((5-chloro-2-((1-ethyl-2-oxoindolin-5-yl)amino)pyrimidin-4-yl)amino)-5-methoxyphenyl)acrylamide], the “ERK1 Mass Mod (%)” value at Erk1 is “E (provided a mass modification of ≧70%)”.

For `C=CC(=O)Nc1ccccc1Nc1nc(Nc2cc(C(=O)NOC)ccc2C#N)ncc1C(F)(F)F` [Compound I-72, 3-((4-((2-Acrylamidophenyl)amino)-5-(trifluoromethyl)pyrimidin-2-yl)amino)-4-cyano-N-methoxybenzamide], at Erk1, the “ERK1 Mass Mod (%)” value is reported as “E (provided a mass modification of ≧70%)”.

Turning to `C=CC(=O)Nc1ccccc1Nc1nc(Nc2cc(OC)ccc2C)ncc1C(F)(F)F` [Compound I-340, N-(2-((2-((5-methoxy-2-methylphenyl)amino)-5-(trifluoromethyl)pyrimidin-4-yl)amino)phenyl)acrylamide], the “ERK1 Mass Mod (%)” value at Erk1 is reported as “E (provided a mass modification of ≧70%)”.

With `C=CC(=O)Nc1cc(C)ccc1Nc1nc(Nc2cc(OC)nc(N(C)CCOC)c2)ncc1C(F)(F)F` [Compound I-336, N-(2-((2-((2-methoxy-6-((2-methoxyethyl)(methyl)amino)pyridin-4-yl)amino)-5-(trifluoromethyl)pyrimidin-4-yl)amino)-5-methylphenyl)acrylamide], the “ERK1 Mass Mod (%)” value at Erk1 is listed as “E (provided a mass modification of ≧70%)”.

As for `C=CC(=O)Nc1cc(F)ccc1Nc1nc(Nc2ccc(F)cc2OC)ncc1Cl` [Compound I-213, N-(2-((5-chloro-2-((4-fluoro-2-methoxyphenyl)amino)pyrimidin-4-yl)amino)-5-fluorophenyl)acrylamide], the “ERK1 Mass Mod (%)” value on Erk1 is “E (provided a mass modification of ≧70%)”.

Regarding `C=CC(=O)Nc1ccccc1Oc1nc(NC(C)(C)C)ncc1C(N)=O` [Compound I-267, 4-(2-acrylamidophenoxy)-2-(tert-butylamino)pyrimidine-5-carboxamide], the “ERK1 Mass Mod (%)” value at Erk1 was “E (provided a mass modification of ≧70%)”.

The values are drawn from patent US9796700B2 (Celgene CAR LLC, priority 2013, dated 2017).
